# Results taken from patent US9260408B2, “Dihydroquinoline-2-one derivatives” (Hoffmann-La Roche Inc., priority 2011, dated 2016).
# Structures can show the parent of a compound that is named as a salt.
# What was measured:
# human CYP11B2 = molecular target: T1, human CYP11B2 (Homo sapiens, UniProt P19099); assay: G-402 cellular enzyme assay, human CYP11B2 (aldosterone release, HTRF); type: cell-based; details: G-402 cells expressing human CYP11B2; 1 μM Deoxycorticosterone
# T1 construct: expressed in transfected cells
# T1 sequence (P19099 25-503): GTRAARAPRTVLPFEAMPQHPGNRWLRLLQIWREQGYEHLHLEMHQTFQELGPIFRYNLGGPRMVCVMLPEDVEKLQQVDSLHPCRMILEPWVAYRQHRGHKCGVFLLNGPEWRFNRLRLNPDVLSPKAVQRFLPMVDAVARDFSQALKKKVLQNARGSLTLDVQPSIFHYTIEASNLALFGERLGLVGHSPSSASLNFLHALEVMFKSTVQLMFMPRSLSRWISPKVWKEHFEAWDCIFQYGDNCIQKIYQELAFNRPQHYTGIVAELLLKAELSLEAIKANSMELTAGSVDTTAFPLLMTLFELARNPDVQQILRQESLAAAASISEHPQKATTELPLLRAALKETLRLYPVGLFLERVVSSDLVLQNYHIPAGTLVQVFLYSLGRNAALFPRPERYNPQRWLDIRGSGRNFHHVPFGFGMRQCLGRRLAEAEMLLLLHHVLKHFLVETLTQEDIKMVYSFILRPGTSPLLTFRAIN
# Method in brief: (§1)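 EC50 comes from least-squares fitting of a 4-parameter MMF curve to steroid product levels, measured by HTRF as aldosterone for CYP11B2 or cortisol for CYP11B1. Stably transfected G-402 host cells were given substrate (1 μM deoxycorticosterone or deoxycortisol, respectively) with inhibitor for 16 h in medium with 2.5% charcoal-treated FCS.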
# human CYP11B1 = molecular target: T2, human CYP11B1 (Homo sapiens, UniProt P15538); assay: G-402 cellular enzyme assay, human CYP11B1 (cortisol release, HTRF); type: cell-based; details: G-402 cells expressing human CYP11B1; 1 μM Deoxycortisol
# T2 construct: expressed in transfected cells
# T2 sequence (P15538 25-503): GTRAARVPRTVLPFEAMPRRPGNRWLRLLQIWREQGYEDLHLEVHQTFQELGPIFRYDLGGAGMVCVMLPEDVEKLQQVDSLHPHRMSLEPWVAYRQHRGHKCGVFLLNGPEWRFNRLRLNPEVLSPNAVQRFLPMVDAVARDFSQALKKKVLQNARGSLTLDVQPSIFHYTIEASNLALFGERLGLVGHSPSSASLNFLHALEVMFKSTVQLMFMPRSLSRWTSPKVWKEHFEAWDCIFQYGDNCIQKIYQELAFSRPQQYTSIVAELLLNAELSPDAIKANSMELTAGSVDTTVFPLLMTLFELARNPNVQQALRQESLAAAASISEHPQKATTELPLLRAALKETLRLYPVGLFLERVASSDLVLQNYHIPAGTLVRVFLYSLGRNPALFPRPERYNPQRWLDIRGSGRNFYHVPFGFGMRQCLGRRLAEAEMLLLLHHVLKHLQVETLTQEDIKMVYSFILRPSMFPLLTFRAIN
# Method in brief: as §1
Compound,EC50 (human CYP11B2) [nM],EC50 (human CYP11B1) [nM]
"Cc1noc(C)c1C(=O)NCc1cncc(-c2ccc3c(c2)CCC(=O)N3C)c1C [Example 223, 3,5-Dimethyl-isoxazole-4-carboxylic acid [4-methyl-5-(1-methyl-2-oxo-1,2,3,4-tetrahydro-quinolin-6-yl)-pyridin-3-ylmethyl]-amide]",36,2860
"Cc1c(CN)cncc1-c1cc2c(cc1F)N(C)C(=O)CC2 [Example 226, 6-(5-Aminomethyl-4-methyl-pyridin-3-yl)-7-fluoro-1-methyl-3,4-dihydro-1H-quinolin-2-one hydrochloride]",11,1770
"CN(Cc1cncc(-c2ccc3c(c2)CCC(=O)N3C)c1Cl)C(=O)c1ncccc1Cl [Example 228, 3-Chloro-pyridine-2-carboxylic acid [4-chloro-5-(1-methyl-2-oxo-1,2,3,4-tetrahydro-quinolin-6-yl)-pyridin-3-ylmethyl]-methyl-amide]",9,356
"Cc1c(CN(C)C(=O)c2ncccc2Cl)cncc1-c1ccc2c(c1)CCC(=O)N2C [Example 229, 3-Chloro-pyridine-2-carboxylic acid methyl-[4-methyl-5-(1-methyl-2-oxo-1,2,3,4-tetrahydro-quinolin-6-yl)-pyridin-3-ylmethyl]-amide]",10,656
"CN1C(=O)CCc2cc(-c3cncc(C4=CN(C(=O)OC(C)(C)C)CCC4)c3)ccc21 [Example 231, 5′-(1-Methyl-2-oxo-1,2,3,4-tetrahydro-quinolin-6-yl)-5,6-dihydro-4H-[3,3′]bipyridinyl-1-carboxylic acid tert-butyl ester]",19,802
"CN1C(=O)CCc2cc(-c3cncc(OCCNC(=O)c4ncccc4Cl)c3)ccc21 [Example 233, 3-Chloro-pyridine-2-carboxylic acid {2-[5-(1-methyl-2-oxo-1,2,3,4-tetrahydro-quinolin-6-yl)-pyridin-3-yloxy]-ethyl}-amide]",13,219
"CCS(=O)(=O)NCc1cncc(-c2cc3c4c(c2)CCN4C(=O)CC3)c1 [Example 234, Ethanesulfonic acid [5-(4-oxo-1,2,5,6-tetrahydro-4H-pyrrolo[3,2,1-ij]quinolin-8-yl)-pyridin-3-ylmethyl]-amide]",27,2260
"CCS(=O)(=O)NCc1cncc(-c2cc3c4c(c2)CCC(=O)N4CCC3)c1 [Example 235, Ethanesulfonic acid [5-(3-oxo-2,3,6,7-tetrahydro-1H,5H-pyrido[3,2,1-ij]quinolin-9-yl)-pyridin-3-ylmethyl]-amide]",109,4660
"Cc1noc(C)c1C(=O)NCc1cncc(-c2cc3c(cc2F)N(C)C(=O)CC3)c1C [Example 246, 3,5-Dimethyl-isoxazole-4-carboxylic acid [5-(7-fluoro-1-methyl-2-oxo-1,2,3,4-tetrahydro-quinolin-6-yl)-4-methyl-pyridin-3-ylmethyl]-amide]",13,4720
"CN1C(=O)CCc2cc(-c3cncc(O[C@H]4CCN(C(=O)c5cnn(C)c5)C4)c3)ccc21 [Example 255, 1-Methyl-6-{5-[(S)-1-(1-methyl-1H-pyrazole-4-carbonyl)-pyrrolidin-3-yloxy]-pyridin-3-yl}-3,4-dihydro-1H-quinolin-2-one]",13,1320
"Cn1c(=O)ccc2cc(-c3cncc(C4(N)CC4)c3)ccc21 [Example 262, 6-[5-(1-Amino-cyclopropyl)-pyridin-3-yl]-1-methyl-1H-quinolin-2-one]",84,1820

# Compounds with a lower EC50 (human CYP11B2), results first:
EC50 (human CYP11B2) [nM],EC50 (human CYP11B1) [nM],Compound
6,173,"Cc1c(CNC(=O)c2ncccc2Cl)cncc1-c1ccc2c(c1)CCC(=O)N2C [Example 224, 3-Chloro-pyridine-2-carboxylic acid [4-methyl-5-(1-methyl-2-oxo-1,2,3,4-tetrahydro-quinolin-6-yl)-pyridin-3-ylmethyl]-amide]"
6,691,"Cc1c(CN[S@+]([O-])C(C)(C)C)cncc1-c1cc2c(cc1F)N(C)C(=O)CC2 [Example 225, (R)-2-Methyl-propane-2-sulfinic acid [5-(7-fluoro-1-methyl-2-oxo-1,2,3,4-tetrahydro-quinolin-6-yl)-4-methyl-pyridin-3-ylmethyl]-amide]"
4,157,"Cc1c(CNC(=O)c2ncccc2Cl)cncc1-c1cc2c(cc1F)N(C)C(=O)CC2 [Example 227, 3-Chloro-pyridine-2-carboxylic acid [5-(7-fluoro-1-methyl-2-oxo-1,2,3,4-tetrahydro-quinolin-6-yl)-4-methyl-pyridin-3-ylmethyl]-amide]"
1,16,"CN1C(=O)CCc2cc(-c3cncc(OCCNC(=O)OC(C)(C)C)c3)c(F)cc21 [Example 232, {2-[5-(7-Fluoro-1-methyl-2-oxo-1,2,3,4-tetrahydro-quinolin-6-yl)-pyridin-3-yloxy]-ethyl}-carbamic acid tert-butyl ester]"
3,77,"O=C(NCc1cncc(-c2cc3c4c(c2)CCN4C(=O)CC3)c1)c1ncccc1Cl [Example 236, 3-Chloro-pyridine-2-carboxylic acid [5-(4-oxo-1,2,5,6-tetrahydro-4H-pyrrolo[3,2,1-ij]quinolin-8-yl)-pyridin-3-ylmethyl]-amide]"
8,143,"CN(Cc1cncc(-c2cc3c4c(c2)CCN4C(=O)CC3)c1)C(=O)c1ncccc1Cl [Example 237, 3-Chloro-pyridine-2-carboxylic acid methyl-[5-(4-oxo-1,2,5,6-tetrahydro-4H-pyrrolo[3,2,1-ij]quinolin-8-yl)-pyridin-3-ylmethyl]-amide]"
5,513,"CN1C(=O)CCc2cc(-c3cncc(OCCN)c3)c(F)cc21 [Example 238, 6-[5-(2-Amino-ethoxy)-pyridin-3-yl]-7-fluoro-1-methyl-3,4-dihydro-1H-quinolin-2-one hydrochloride]"
1,26,"CCS(=O)(=O)NCCOc1cncc(-c2cc3c(cc2F)N(C)C(=O)CC3)c1 [Example 243, Ethanesulfonic acid {2-[5-(7-fluoro-1-methyl-2-oxo-1,2,3,4-tetrahydro-quinolin-6-yl)-pyridin-3-yloxy]-ethyl}-amide]"
2,75,"CN1C(=O)CCc2cc(-c3cncc(OCCNC(=O)c4ncccc4Cl)c3)c(F)cc21 [Example 244, 3-Chloro-pyridine-2-carboxylic acid {2-[5-(7-fluoro-1-methyl-2-oxo-1,2,3,4-tetrahydro-quinolin-6-yl)-pyridin-3-yloxy]-ethyl}-amide]"
1,72,"CN1C(=O)CCc2cc(-c3cncc(O[C@H]4CC[C@H](NS(C)(=O)=O)CC4)c3)ccc21 [Example 245, N-{(trans)-4-[5-(1-Methyl-2-oxo-1,2,3,4-tetrahydro-quinolin-6-yl)-pyridin-3-yloxy]-cyclohexyl}-methanesulfonamide]"
5,69,"CN1C(=O)CCc2cc(-c3cncc(C4=CCN(C(=O)OC(C)(C)C)CC4)c3)ccc21 [Example 247, 5-(1-Methyl-2-oxo-1,2,3,4-tetrahydro-quinolin-6-yl)-3′,6′-dihydro-2′H-[3,4′]bipyridinyl-1′-carboxylic acid tert-butyl ester]"
1,49,"CC(=O)N1CC[C@H](Oc2cncc(-c3ccc4c(c3)CCC(=O)N4C)c2)C1 [Example 254, 6-[5-((S)-1-Acetyl-pyrrolidin-3-yloxy)-pyridin-3-yl]-1-methyl-3,4-dihydro-1H-quinolin-2-one]"
8,158,"CCOC(=O)N1CC[C@H](Oc2cncc(-c3ccc4c(c3)CCC(=O)N4C)c2)C1 [Example 256, (S)-3-[5-(1-Methyl-2-oxo-1,2,3,4-tetrahydro-quinolin-6-yl)-pyridin-3-yloxy]-pyrrolidine-1-carboxylic acid ethyl ester]"
1,154,"Cc1oncc1C(=O)NCc1cncc(-c2cc3c(cc2F)N(C)C(=O)CC3)c1C [Example 259, 5-Methyl-isoxazole-4-carboxylic acid [5-(7-fluoro-1-methyl-2-oxo-1,2,3,4-tetrahydro-quinolin-6-yl)-4-methyl-pyridin-3-ylmethyl]-amide]"
